Read-outs that look alike come from different tables or passages of the source.
What was measured:
[1] = Incubations with pooled human liver S9 fraction (pHLS9), metabolite identification by LC-HRMS/MS; type: in vitro ADME; details: human data for ephylone and 4F-PHP from Wagmann et al., [2019b]
Experimental: According to published procedures (Richter et al., [2017b], [2019b]; Caspar et al., [2018b]; Wagmann et al., [2019b],[c]), the final incubation volume per reaction tube was 150 μl, with a final protein concentration of 2 mg/ml. The given concentrations represent final concentrations. A preincubation for 10 min at 37°C with UGT reaction mixture solution B (containing alamethicin, 25 μg/ml), MgCl2 (2.5 mM), NADP^+ (0.6 mM), isocitrate (2.5 mM), isocitrate dehydrogenase (0.8 U/ml), superoxide dismutase (100 U/ml), acetyl coenzyme A (0.1 mM), phosphate buffer (90 mM, pH 7.4), and pHLS9 (2 mg/ml) was done. Afterwards, UGT reaction mixture solution A (containing UDP glucuronic acid, 2.5 mM), PAPS (40 μM), SAM (1.2 mM), dithiothreitol (1 mM), and glutathione (10 mM) were added, as well as 25 μM 4F-MDMB-BINACA to start the reactions. The mixture was incubated for 360 min. Total amount of organic solvent in incubation mixtures was <2% (Chauret et al., [1998]). After 60 min, an aliquot of the reaction mixture (60 μl) was transferred in another reaction tube containing 20 μl of ice-cold acetonitrile to terminate the reactions. The remaining aliquot (90 μl) was incubated for an additional 300 min, and then the reactions were stopped by adding 30 μl of ice-cold acetonitrile. Thereafter, the reaction tubes were cooled at −20°C for 30 min prior to centrifugation at 18,407 × g for 2 min. The supernatants (50 μl) were transferred into autosampler vials, and 1 μl was injected onto the LC-HRMS/MS system. Control samples without pHLS9 and blank samples without substrate were prepared to confirm the absence of non-metabolically formed and interfering compounds, respectively. All incubations were performed in duplicate.
According to a previous study (Richter et al., [2019a]), a Thermo Fisher Scientific (TF, Dreieich, Germany) Dionex UltiMate 3000 Rapid Separation (RS) UHPLC system with a quaternary UltiMate 3000 RS pump and an UltiMate 3000 RS autosampler controlled by the TF Chromeleon software version 6.8 was used. The LC system was coupled to an Orbitrap-based TF Q-Exactive Plus equipped with a heated electrospray ionization II (HESI-II) source. Calibration was done prior to analysis with a Positive Cal Mix (Supelco, Bellefonte, PA, USA) at a flow rate of 3 μl/min using a syringe pump. The conditions of the LC system were as follows: TF Accucore PhenylHexyl column (100 × 2.1 mm, 2.6 μm particle size); gradient elution with 2 mM ammonium formate solution containing 0.1% (v/v) formic acid (eluent A) and 2 mM ammonium formate solution in acetonitrile/methanol (50:50, v/v) containing 0.1% (v/v) formic acid, and 1% (v/v) water (eluent B). […] The following gradient was used: 0–1.0 min hold 1% B, 1–10 min to 99% B, 10–11.5 min hold 99% B, 11.5–13.5 min hold 1% B. The HESI-II source conditions were as follows: ionization mode, positive; heater temperature, 320°C; ion transfer capillary temperature, 320°C; sheath gas, 60 arbitrary units (AU); auxiliary gas, 10 AU; spray voltage, 4.00 kV; and S-lens RF level, 50.0. Mass spectrometry experiments were performed using high-resolution (HR) full scan mode and a targeted MS^2 mode with an inclusion list for each NPS. The inclusion list contained m/z values of metabolites, which were likely to be formed for example hydroxy, oxo, carboxy, dealkyl, demethylenylated, and defluorinated metabolites (phase I) as well as sulfates and glucuronides (phase II) and combinations of them. Full scan settings were as follows: resolution, 35,000; automatic gain control (AGC) target, 3e6; maximum injection time (IT), 120 ms; scan ranges, 3,4-DMA-NBOMe m/z 100–700, ephylone m/z 200–600, 4F-MDMB-BINACA m/z 150–700, 4F-PHP m/z 200–600, and 1P-LSD m/z 250–700. The settings for the targeted MS^2 mode with the respective inclusion lists were as follows: resolution, 17,500; AGC target, 2e5; maximum IT, 250 ms; loop count, 5; isolation window, 1.0 m/z; stepped normalized collision energy (NCE), 17.5, 35, 52.5%; pick others, enabled. […]

[2] = tested on: HepaRG cells; experiment: Incubations with HepaRG cells, metabolite identification by LC-HRMS/MS; type: in vitro ADME, human; details: for Absolute peak area, HepaRG [25 μM]: 25 μM parent NPS; for Absolute peak area, HepaRG [25 μM] / Number of phase I metabolites detected, HepaRG [25 μM] / Number of phase II metabolites detected, HepaRG [25 μM] / Absolute peak area, HepaRG [250 μM] / Number of phase I metabolites detected, HepaRG [250 μM] / Number of phase II metabolites detected, HepaRG [250 μM]: 24 h; for Absolute peak area, HepaRG [25 μM] / Absolute peak area, HepaRG [250 μM]: cell culture medium, one replicate of n = 3, n.d. = not detected; for Absolute peak area, HepaRG [250 μM]: 250 μM parent NPS
[3] = tested on: zebrafish larvae; experiment: In vivo maximum-tolerated concentration (MTC) study in zebrafish larvae; set-up: species or system zebrafish (Danio rerio); details: for Survival rate / Survival rates for all tested concentrations / Malformations: larvae 4 dpf; for Survival rate: 24-h treatment, fifteen larvae; for Survival rates for all tested concentrations: 0.01 to 100 μM; for Survival rates for all tested concentrations / Malformations: 24 h; for Concentration considered non-toxic for zebrafish larvae (4 dpf): 24 h exposure via medium; for Malformations: up to 100 μM
Experimental: Internal protocols based on published standard methods (Westerfield, [2007]) were used to perform zebrafish husbandry and the maximum-tolerated concentration (MTC) testing was based on a previous study (Richter et al., [2019a]). Danieau's medium [17 mM NaCl, 2 mM KCl, 0.12 mM MgSO4, 1.8 mM Ca(NO3)2, 1.5 mM HEPES, pH 7.1–7.3, and 1.2 μM methylene blue] at 28°C was used to raise zebrafish larvae of the AB wild-type strain. For MTC testing, 96-well plates were used with 100 μl of medium and one larva per well. Drug exposition was started 4 dpf using 0, 0.01, 0.1, 1, 10, 50, or 100 μM final concentrations of 3,4-DMA-NBOMe, ephylone, 4F-MDMB-BINACA, 4F-PHP, or 1P-LSD, respectively. The drug exposure in the incubator at 28°C lasted 24 h. The final DMSO concentration was 1% (v/v) for all experiments. Monitoring of the larvae was done using a LEICA M205 FA stereo microscope (Leica Mikrosysteme Vertrieb GmbH, Wetzlar, Germany) to detect developmental defects and/or decreased survival rates. Fifteen larvae were used for each experiment.

[4] = ref Wagmann et al., cited from earlier work; for Detection in pHLS9 [25 µM]: n = 2, according to literature
[5] = tested on: monooxygenases; details: initial monooxygenases activity screenings described elsewhere; ref Caspar et al., [2018a]; Wagmann et al., [2019b],[c]; cited from earlier work
[6] = cited from earlier work; for Detection in serum and urine samples of an intoxicated patient: after assumed consumption of a blotter containing 1P-LSD, ref Grumann et al., [2019]
[7] = tested on: zebrafish larvae; experiment: Zebrafish larvae exposure, metabolite identification by LC-HRMS/MS; details: for Number of phase I metabolites detected, Zebrafish larvae / Number of phase II metabolites detected, Zebrafish larvae: 100 μM in medium; for Number of phase I metabolites detected, Zebrafish larvae / Number of phase II metabolites detected, Zebrafish larvae / Absolute peak area, Zebrafish larvae [100 µM]: 24 h; for Absolute peak area, Zebrafish larvae [100 µM]: 100 µM parent NPS in medium, larvae 4 dpf, larvae extract, one replicate of n = 3, n.d. = not detected
[8] = after subcutaneous administration of 1P-LSD to rats; ref Halberstadt et al., [2019]; cited from earlier work
[9] = plasma, human data for ephylone and 4F-PHP from Wagmann et al., [2019b]
[10] = urine, human data for ephylone and 4F-PHP from Wagmann et al., [2019b]

Compound	Absolute peak area, HepaRG [25 μM] [2]	Number of phase I metabolites detected, HepaRG [25 μM] [2]	Number of phase II metabolites detected, HepaRG [25 μM] [2]	Absolute peak area, HepaRG [250 μM] [2]	Number of phase I metabolites detected, HepaRG [250 μM] [2]	Number of phase II metabolites detected, HepaRG [250 μM] [2]	Survival rate ([3]; 0.01 μM)	Survival rate ([3]; 0.1 μM)	Survival rate ([3]; 1 μM)	Survival rate ([3]; 10 μM)	Survival rate ([3]; 50 μM)	Survival rate ([3]; 100 μM)	Survival rates for all tested concentrations [3]	Concentration considered non-toxic for zebrafish larvae (4 dpf) [3]	Malformations [3]	Monooxygenases involved in metabolism [5]	Number of phase I metabolites detected, Zebrafish larvae [7]	Number of phase II metabolites detected, Zebrafish larvae [7]	Absolute peak area, Zebrafish larvae [100 µM] [7]	Detection in pHLS9 [25 µM] ([4]; 1P-LSD and metabolites, 2019b)	further results
CCCC(NCC)C(=O)c1ccc2c(c1)OCO2 (stereo not shown) [Ephylone, N-ethylnorpentylone]	6.38E+08	2	4	3.94E+09	4	6	100%	100%	100%	100%	100%	100%	100%	100 µM	no malformations	CYP1A2, CYP2B6, CYP2C19, and CYP3A4	5	4	3.57E+09		Relative number of matches with the four most abundant signals in human plasma, pHLS9 [25 μM] ([1]; plasma): 100%; Relative number of matches with the four most abundant signals in human urine, pHLS9 [25 μM] ([1]; urine): 100%; Relative number of matches with the four most abundant signals in human plasma, HepaRG [25 μM] [2, 9]: 75%; Relative number of matches with the four most abundant signals in human plasma, HepaRG [250 μM] [2, 9]: 100%; Relative number of matches with the four most abundant signals in human urine, HepaRG [25 μM] [2, 10]: 75%; Relative number of matches with the four most abundant signals in human urine, HepaRG [250 μM] [2, 10]: 100%; Number of phase I metabolites detected, pHLS9 [25 μM] ([4]; [2019b]): 5 (Wagmann et al., [2019b]); Number of phase II metabolites detected, pHLS9 [25 μM] ([4]; [2019b]): 8 (Wagmann et al., [2019b]); Detection in pHLS9 [25 µM] ([4]; ephylone and metabolites, 2019a): +; Signals with the highest abundance in human plasma and/or urine ([6]; human biosamples after intake of ephylone and 4F-PHP, ref Wagmann et al., [2019b]): highest ephylone-related signals; Relative number of matches with the four most abundant signals in human plasma, Zebrafish larvae ([7]; plasma, larvae exposed to 100 μM, human data from Wagmann et al., [2019b]): 100%; Relative number of matches with the four most abundant signals in human urine, Zebrafish larvae ([7]; urine, larvae exposed to 100 μM, human data from Wagmann et al., [2019b]): 100%
CCN(CC)C(=O)[C@@H]1C=C2c3cccc4[nH]cc(c34)C[C@H]2N(C)C1 [ML7, LSD]	8.59E+08			5.95E+09															1.25E+09	+	Detection in serum and urine samples of an intoxicated patient [6]: able to find; Detection in rat plasma [8]: able to detect
CCC(=O)n1cc2c3c(cccc31)C1=C[C@@H](C(=O)N(CC)CC)CN(C)[C@@H]1C2 [Metabolite 1P-LSD, 1-propionyl-d-lysergic acid diethylamide]	3.60E+07	14	1	5.41E+06	15	2	100%	100%	100%	100%	100%	100%	100%	100 µM	no malformations	N-dealkylated and hydroxylated exclusively by CYP3A4	22	3	2.92E+09	+	Number of phase I metabolites detected, pHLS9 [25 μM] ([4]; [2019c]): 8 (Wagmann et al., [2019c]); Number of phase II metabolites detected, pHLS9 [25 μM] ([4]; [2019c]): 0 (Wagmann et al., [2019c]); Detection in serum and urine samples of an intoxicated patient [6]: could not be detected; Detection in rat plasma [8]: able to detect

Source: paper PMC7380166, “How to Study the Metabolism of New Psychoactive Substances for the Purpose of Toxicological Screenings—A Follow-Up Study Comparing Pooled Human Liver S9, HepaRG Cells, and Zebrafish Larvae” (Frontiers in Chemistry, 2020)
